Numbers after ± are expanded uncertainties.
Assays:
[1] = 100 kPa, Liquid, Capillary tube (Ostwald / Ubbelohde) method
[2] = cn = amount concentration of the nth substance listed, in mol/dm3; conditions: 100 kPa, Liquid, Capillary tube (Ostwald / Ubbelohde) method
[3] = mn = molality of the nth substance listed, in mol/kg; conditions: 100 kPa, Liquid, Capillary tube (Ostwald / Ubbelohde) method

O [water]
[1]
Conditions | viscosity [mPa·s]
288.15 K | 1.138 ± 0.11
298.15 K | 0.89 ± 0.089
308.15 K | 0.719 ± 0.072
318.15 K | 0.596 ± 0.06

O=C(CO)[C@@H](O)[C@H](O)[C@H](O)CO [D-fructose] + O
viscosity [mPa·s], [2]
Conditions | c1 = 0.0628 | c1 = 0.06594 | c1 = 0.08345 | c1 = 0.1124 | c1 = 0.1285 | c1 = 0.1523
288.15 K | 1.174 ± 0.12 | 1.175 ± 0.12 | 1.185 ± 0.12 | 1.201 ± 0.12 | 1.209 ± 0.12 | 1.222 ± 0.12
298.15 K | 0.916 ± 0.092 | 0.917 ± 0.092 | 0.924 ± 0.093 | 0.935 ± 0.094 | 0.941 ± 0.094 | 0.951 ± 0.095
308.15 K | 0.739 ± 0.074 | 0.74 ± 0.074 | 0.745 ± 0.075 | 0.754 ± 0.076 | 0.759 ± 0.076 | 0.766 ± 0.077
318.15 K | 0.61 ± 0.061 | 0.611 ± 0.061 | 0.614 ± 0.062 | 0.621 ± 0.062 | 0.624 ± 0.063 | 0.629 ± 0.063

C[C@@H]1O[C@@H](O)[C@H](O)[C@H](O)[C@H]1O [6-deoxy-α-L-mannopyranose] + O
viscosity [mPa·s], [3]
Conditions | m1 = 0.04655 | m1 = 0.05637 | m1 = 0.08317 | m1 = 0.0856 | m1 = 0.1109 | m1 = 0.1248 | m1 = 0.1471
288.15 K | 1.165 ± 0.12 | 1.171 ± 0.12 | 1.186 ± 0.12 | 1.187 ± 0.12 | 1.202 ± 0.12 | 1.21 ± 0.12 | 1.222 ± 0.12
298.15 K | 0.91 ± 0.091 | 0.914 ± 0.092 | 0.925 ± 0.093 | 0.926 ± 0.093 | 0.937 ± 0.094 | 0.943 ± 0.094 | 0.952 ± 0.095
308.15 K | 0.734 ± 0.074 | 0.737 ± 0.074 | 0.746 ± 0.075 | 0.747 ± 0.075 | 0.755 ± 0.076 | 0.759 ± 0.076 | 0.766 ± 0.077
318.15 K | 0.608 ± 0.061 | 0.61 ± 0.061 | 0.617 ± 0.062 | 0.618 ± 0.062 | 0.623 ± 0.062 | 0.627 ± 0.063 | 0.632 ± 0.063

O=P([O-])(O)O.[K+] [monopotassium phosphate] + O
viscosity [mPa·s], [3]
Conditions | 288.15 K | 298.15 K | 308.15 K | 318.15 K
m1 = 0.25 | 1.236 ± 0.12 | 0.972 ± 0.097 | 0.777 ± 0.078 | 0.633 ± 0.063
m1 = 0.5 | 1.301 ± 0.13 | 1.025 ± 0.1 | 0.815 ± 0.082 | 0.666 ± 0.067
m1 = 1 | 1.539 ± 0.15 | 1.159 ± 0.12 | 0.939 ± 0.094 | 0.763 ± 0.077
m1 = 1.25 | 1.636 ± 0.16 | 1.294 ± 0.13 | 1.027 ± 0.1 | 0.84 ± 0.084

OC[C@H]1O[C@@](CO)(O[C@H]2O[C@H](CO)[C@@H](O)[C@H](O)[C@H]2O)[C@@H](O)[C@@H]1O [D-sucrose] + O
viscosity [mPa·s], [3]
Conditions | m1 = 0.05768 | m1 = 0.06994 | m1 = 0.07682 | m1 = 0.08384 | m1 = 0.09221 | m1 = 0.1103 | m1 = 0.1237 | m1 = 0.1437
288.15 K | 1.205 ± 0.12 | 1.219 ± 0.12 | 1.227 ± 0.12 | 1.235 ± 0.12 | 1.244 ± 0.12 | 1.265 ± 0.13 | 1.28 ± 0.13 | 1.302 ± 0.13
298.15 K | 0.941 ± 0.094 | 0.951 ± 0.095 | 0.957 ± 0.096 | 0.963 ± 0.096 | 0.97 ± 0.097 | 0.986 ± 0.099 | 0.997 ± 0.1 | 1.014 ± 0.1
308.15 K | 0.758 ± 0.076 | 0.766 ± 0.077 | 0.771 ± 0.077 | 0.776 ± 0.078 | 0.781 ± 0.078 | 0.793 ± 0.079 | 0.802 ± 0.08 | 0.815 ± 0.082
318.15 K | 0.627 ± 0.063 | 0.634 ± 0.064 | 0.637 ± 0.064 | 0.641 ± 0.064 | 0.645 ± 0.065 | 0.655 ± 0.066 | 0.662 ± 0.066 | 0.672 ± 0.067
